Data on 6 compounds can be found in publication PMC7671190 (Journal of medicinal chemistry, 2020).

Where two headings read alike, the source gives them in different places.

Experiment [1] concerns Wild type Ebola virus (1976 Mayinga variant). The experiment is classed as cell-based, Ebola virus (EBOV).
In experiment [2] the test system is wild type MARV (Lake Victoria, 2005 Angola). Briefly: organism not typed. To be noted: Vero, read-out: MARV EC50, Vero cells. The experiment is classed as cell-based, Marburg virus (MARV).
For experiment [3], the system named is HIV/EBOV-GP pseudotype virus. Briefly: organism not typed. The experiment is classed as cell-based, Ebola virus (EBOV).
In the next experiment the target is CYP3A4 (Homo sapiens, UniProt P08684).
Another experiment concerns the target CYP2C9 (Homo sapiens, UniProt P11712).
The mark [4] stands for this setting: A549, read-out: EC50, Ebola pseudovirus (in nM).

Chain of CYP3A4 (P08684 whole entry): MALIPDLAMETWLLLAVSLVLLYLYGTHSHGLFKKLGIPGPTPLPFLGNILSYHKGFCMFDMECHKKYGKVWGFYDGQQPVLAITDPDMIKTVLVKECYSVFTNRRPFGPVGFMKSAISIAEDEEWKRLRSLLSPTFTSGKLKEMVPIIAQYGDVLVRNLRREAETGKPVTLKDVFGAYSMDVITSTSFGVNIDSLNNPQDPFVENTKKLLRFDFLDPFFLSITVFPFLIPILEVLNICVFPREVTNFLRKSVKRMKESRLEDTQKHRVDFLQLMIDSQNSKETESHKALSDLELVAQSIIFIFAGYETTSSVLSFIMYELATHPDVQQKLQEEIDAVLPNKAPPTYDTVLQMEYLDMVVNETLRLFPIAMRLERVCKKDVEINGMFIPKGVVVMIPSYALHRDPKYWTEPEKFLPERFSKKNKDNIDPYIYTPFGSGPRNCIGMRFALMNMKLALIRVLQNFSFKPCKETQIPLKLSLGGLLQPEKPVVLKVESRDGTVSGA
Chain of CYP2C9 (P11712 whole entry): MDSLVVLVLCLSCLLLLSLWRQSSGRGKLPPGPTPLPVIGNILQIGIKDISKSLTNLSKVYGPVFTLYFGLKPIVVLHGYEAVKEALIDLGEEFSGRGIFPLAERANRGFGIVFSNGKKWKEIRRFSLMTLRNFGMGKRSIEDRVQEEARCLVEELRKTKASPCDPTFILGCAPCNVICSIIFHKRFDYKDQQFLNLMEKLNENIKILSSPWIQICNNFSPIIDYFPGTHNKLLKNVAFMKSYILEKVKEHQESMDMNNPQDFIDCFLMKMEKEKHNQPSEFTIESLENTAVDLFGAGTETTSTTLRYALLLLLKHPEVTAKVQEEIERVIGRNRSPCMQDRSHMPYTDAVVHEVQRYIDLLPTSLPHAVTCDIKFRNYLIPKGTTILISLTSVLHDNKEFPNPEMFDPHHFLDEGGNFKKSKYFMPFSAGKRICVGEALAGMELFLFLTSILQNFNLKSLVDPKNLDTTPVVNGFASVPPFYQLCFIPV

`COC(=O)c1ccc(NC(=O)c2ccc(CN3CCCCC3)cc2)cc1` [Compound 5, Methyl 4-(4-(piperidin-1-ylmethyl)benzamido)benzoate]: the “EBOV (HeLa) EC50” value in experiment [1] was “inactive”. For the same compound, in experiment [2], the EC50 is below 10000 nM. `COC(=O)c1ccc(NC(=O)c2ccc(CN3CCN(C)CC3)cc2)cc1` [Compound 7, Methyl 4-(4-((4-methylpiperazin-1-yl)methyl)benzamido)benzoate]: the inhibition at 12.5 µM in experiment [3] (A549, read-out: Ebola pseudovirus A549 cells % inhibition) was 29%. As to `O=C(NCCC1CCCCC1)c1ccc(CN2CCCCC2)cc1` [Compound 28, N-(2-Cyclohexylethyl)-4-(piperidin-1-ylmethyl)benzamide], the “Drop in potency on replacing the aniline aromatic ring with a two-carbon linker” value in experiment [3] is listed as 2.3 fold. On to `O=C(Nc1ccc(C23CC4CC(CC(C4)C2)C3)cc1)c1ccc(CN2CCCCC2)cc1` [Compound 32, N-(4-((1R,3R,5S)-adamantan-1-yl)phenyl)-4-(piperidin-1-ylmethyl)benzamide], for which the EC50 in experiment [3] (setting [4]) was below 100 nM. Also, on CYP3A4, the “CYP450 inhibition CYP3A4 IC50” value is listed as “did not inhibit”. Moreover, at CYP2C9, the “CYP450 inhibition CYP2C9 IC50” value is given as “did not inhibit”.

In the case of `O=C(Nc1ccc(C23CC4CC(CC(C4)C2)C3)cc1)c1ccc(CN2CCOCC2)cc1` [Compound 33, N-(4-((1R,3R,5S)-Adamantan-1-yl)phenyl)-4-(morpholinomethyl)benzamide], in experiment [3] (setting [4]), the EC50 was below 100 nM.

`O=C(Nc1ccc(N2CCC(F)(F)CC2)cc1)c1ccc(CN2CCCCC2)cc1` [Compound 34, N-(4-(4,4-Difluoropiperidin-1-yl)phenyl)-4-(piperidin-1-ylmethyl)benzamide]: in experiment [3] (A549, read-out: Ebola pseudovirus A549 cells EC50), the EC50 is below 1000 nM.

As a reminder, the EC50 is the concentration giving half of the maximal effect. What is called inhibition is the percentage by which the read-out fell short of the control.
